Earlier results as cited in US20130281394A1, “Chemosensory Receptor Ligand-Based Therapies” (ELCELYX THERAPEUTICS, INC., priority 2010, published 2013).
Where two headings read alike, the source gives them in different places.

How the values were obtained:
sweet receptor = biological target: T1, sweet receptor (Homo sapiens, UniProt Q7RTX0+Q8TE23); settings: relative sweetness on a weight comparison basis to sucrose (= 1.0); ranges: varied with the concentration of sucrose
T1 sequence (Q8TE23 20-839): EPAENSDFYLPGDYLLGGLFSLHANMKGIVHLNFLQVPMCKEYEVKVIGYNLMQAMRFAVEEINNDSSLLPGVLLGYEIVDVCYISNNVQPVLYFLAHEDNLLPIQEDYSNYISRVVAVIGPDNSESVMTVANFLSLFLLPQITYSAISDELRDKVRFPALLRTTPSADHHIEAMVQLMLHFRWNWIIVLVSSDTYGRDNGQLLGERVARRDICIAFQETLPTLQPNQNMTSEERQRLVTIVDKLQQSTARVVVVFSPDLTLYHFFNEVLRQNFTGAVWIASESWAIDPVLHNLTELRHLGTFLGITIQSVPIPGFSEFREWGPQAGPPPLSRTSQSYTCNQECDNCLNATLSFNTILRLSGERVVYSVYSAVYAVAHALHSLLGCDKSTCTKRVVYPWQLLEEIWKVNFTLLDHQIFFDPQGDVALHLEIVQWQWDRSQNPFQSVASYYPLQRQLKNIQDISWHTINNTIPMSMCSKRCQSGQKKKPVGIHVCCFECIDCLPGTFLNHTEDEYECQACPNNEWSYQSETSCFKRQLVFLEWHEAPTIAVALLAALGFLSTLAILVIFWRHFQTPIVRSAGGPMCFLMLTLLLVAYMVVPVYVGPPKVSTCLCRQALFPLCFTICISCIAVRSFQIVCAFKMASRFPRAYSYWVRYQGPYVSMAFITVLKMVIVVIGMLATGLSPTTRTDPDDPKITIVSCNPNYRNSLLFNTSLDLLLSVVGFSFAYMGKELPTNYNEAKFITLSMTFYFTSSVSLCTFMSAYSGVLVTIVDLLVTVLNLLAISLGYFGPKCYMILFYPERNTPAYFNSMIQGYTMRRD
T1 sequence (Q7RTX0 21-852): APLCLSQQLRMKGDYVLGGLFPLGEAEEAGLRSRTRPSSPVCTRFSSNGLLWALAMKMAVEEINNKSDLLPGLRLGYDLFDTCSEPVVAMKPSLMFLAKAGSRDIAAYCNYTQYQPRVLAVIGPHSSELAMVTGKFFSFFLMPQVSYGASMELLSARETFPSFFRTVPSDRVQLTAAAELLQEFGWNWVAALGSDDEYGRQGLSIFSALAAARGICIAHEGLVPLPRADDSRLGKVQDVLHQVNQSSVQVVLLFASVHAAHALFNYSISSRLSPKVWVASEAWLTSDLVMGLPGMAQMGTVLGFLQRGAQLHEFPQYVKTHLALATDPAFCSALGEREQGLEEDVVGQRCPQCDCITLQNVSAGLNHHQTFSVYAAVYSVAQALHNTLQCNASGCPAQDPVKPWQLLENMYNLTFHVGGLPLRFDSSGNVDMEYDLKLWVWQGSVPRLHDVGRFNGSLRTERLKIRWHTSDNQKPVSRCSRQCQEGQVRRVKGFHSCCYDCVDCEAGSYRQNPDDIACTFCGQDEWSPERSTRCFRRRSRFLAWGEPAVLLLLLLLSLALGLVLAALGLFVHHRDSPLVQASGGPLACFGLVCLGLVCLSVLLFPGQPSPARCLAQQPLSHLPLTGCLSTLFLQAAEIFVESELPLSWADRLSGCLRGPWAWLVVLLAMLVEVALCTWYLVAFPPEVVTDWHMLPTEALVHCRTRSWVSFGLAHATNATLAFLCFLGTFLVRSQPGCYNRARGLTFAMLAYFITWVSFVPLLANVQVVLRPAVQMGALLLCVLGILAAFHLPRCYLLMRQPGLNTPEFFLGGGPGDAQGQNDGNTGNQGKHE

gut hormones = settings: humans
[1] = rats
GLP-1 [2] = settings: rats, with a DPP-IV inhibitor
GLP-1 [3] = settings: humans
gut hormone release [4] = settings: instillation into the duodenum of humans
gut hormone release [5] = settings: rats
[6] = patients with jejunostomy
[7] = in vivo

In the case of `C[C@@H]1O[C@@H](O[C@H]2[C@H](Oc3cc(O)c4c(c3)O[C@H](c3ccc(O)cc3)CC4=O)O[C@H](CO)[C@@H](O)[C@@H]2O)[C@H](O)[C@H](O)[C@H]1O` [Naringin], the Taste quality (bitter receptor) is listed as “Bitter”.
For `COc1ccc(-c2cc(=O)c3c(OC)c(OC)c(OC)c(OC)c3o2)cc1OC` [Nobiletin], the Taste quality (bitter receptor) is given as “Bitter”.
For `CC(=O)O[C@H]1CC(=O)OC(C)(C)[C@@H]2CC(=O)[C@]3(C)[C@H](CC[C@@]4(C)[C@H](c5ccoc5)OC(=O)[C@H]5O[C@]543)[C@@]12C` [Nomilin], the Taste quality (bitter receptor) is listed as “Bitter”.
In the case of `C=C[C@H](O)CC(=NOS(=O)(=O)O)S[C@@H]1O[C@H](CO)[C@@H](O)[C@H](O)[C@H]1O` [Progoitrin], the Taste quality (bitter receptor) is given as “Bitter”.
In the case of `O=c1c(O)c(-c2ccc(O)c(O)c2)oc2cc(O)cc(O)c12` [Quercetin], the Taste quality (bitter receptor) is given as “Bitter”.
For `C=C1C[C@@]23CC[C@H]4[C@@](C)(CCC[C@@]4(C)C(=O)O[C@@H]4O[C@H](CO)[C@@H](O)[C@H](O)[C@H]4O)[C@@H]2CC[C@]1(O[C@@H]1O[C@H](CO)[C@@H](O)[C@H](O[C@@H]2O[C@H](CO)[C@@H](O)[C@H](O)[C@H]2O)[C@H]1O[C@@H]1O[C@H](CO)[C@@H](O)[C@H](O)[C@H]1O)C3` [Rebaudioside A], the Sweetness/potency (sweet receptor) is given as 242 and the “alterations of gut hormones in the circulation” value (gut hormones) is given as “no alterations”.
In the case of `COc1ccc(-c2cc(=O)c3c(OC)c(OC)c(OC)cc3o2)cc1OC` [Sinensetin], the Taste quality (bitter receptor) is given as “Bitter”.
In the case of `COc1ccc(-c2cc(=O)c3c(OC)c(OC)c(OC)c(OC)c3o2)cc1` [Tangeretin], the Taste quality (bitter receptor) is given as “Bitter”.
For `O=c1c(-c2ccc(O)cc2)coc2cc(O)ccc12` [daidzein], the Taste quality (bitter receptor) is listed as “Bitter or astringent”.
In the case of `N[C@@H](CCC(=O)O)C(=O)O` [glutamate], the abdominal fat [1] is listed as “reduced” and the weight gain [1] is listed as “decreased”.
For `OCCN1C[C@H](O)[C@@H](O)[C@H](O)[C@H]1CO` [miglitol], the “increase in GLP-1” value (GLP-1 [2]) is given as “synergistic” and the “post-prandial GLP-1 levels” value (GLP-1 [3]) is given as “increase”.
For `OC[C@H]1O[C@H](O[C@]2(CCl)O[C@H](CCl)[C@@H](O)[C@@H]2O)[C@H](O)[C@@H](O)[C@H]1Cl` [sucralose], the gut hormone release (gut hormone release [4]) is given as “no effect” and the gut hormone release (gut hormone release [5]) is given as “no effect”.
In the case of “GLP-2: gut hormone administered to patients with jejunostomy (HADGSFSDEMNTILDNLAARDFINWLIQTKITD; Glucagon-like peptide 2; UniProt P01275 146-178, looked up)”, the “gastric emptying of solids and liquids” value [6] is given as “prolong” and the “intestinal absorption of energy and intestinal wet weight absorption” value [6] is given as “improve”.
For glucagon-like peptide-1 [GLP-1], the “portal:arterial gradient” value [7] is given as > 2:1.
